This is an account of results in ChEMBL document CHEMBL4613209, “Quinolone hybrids and their anti-cancer activities: An overview” (Eur J Med Chem, 2019).

≈ marks a conversion by molar mass, not a printed value. A value given as a limit tells only on which side of the number the result lay.

The test system of one data set is Hep 3B2. Nature of the data set: Anticancer activity against human Hep3B cells after 48 to 72 hrs by MTT assay. In kind it is functional, cell-based. (Tetrazolium dyes change colour on reduction, which living cells bring about.)
The next data set has as its system K562. Put plainly: Anticancer activity against human K562 cells after 48 to 72 hrs by MTT assay. In kind it is functional, cell-based.
The nature of data set [1]: Cytotoxicity against human MGC832 cells assessed as reduction in cell viability after 48 hrs by MTT assay. Format: functional, cell-based.
The subject of the next data set is HepG2. Nature of the data set: Cytotoxicity against human HepG2 cells assessed as reduction in cell viability after 48 hrs by MTT assay. In kind it is functional, cell-based. Particulars: HepG2, 48 h.
Data set [2] has as its system HeLa. Put plainly: Cytotoxicity against human HeLa cells assessed as reduction in cell viability after 48 hrs by MTT assay. In kind it is functional, cell-based.
For data set [3], the system named is HL-60. Nature of the data set: Cytotoxicity against human HL60 cells assessed as reduction in cell viability by MTT assay. In kind it is functional, cell-based.
A further data set deals with SMMC-7721. Put plainly: Cytotoxicity against human SMMC7721 cells assessed as reduction in cell viability by MTT assay. Format: functional, cell-based.
The test system of another data set is CHO. Put plainly: Cytotoxicity against CHO cells assessed as reduction in cell viability by MTT assay. In kind it is cell-based. To be noted: Cricetulus griseus.
For data set [4], the system named is L1210. Nature of the data set: Cytotoxicity against mouse L1210 cells assessed as reduction in cell viability by MTT assay. In kind it is functional, cell-based.
The test system of data set [5] is L1210. Put plainly: Potency index, ratio of TD50 for doxorubicin to TD50 for test compound for cytotoxicity against mouse L1210 cells assessed as reduction in cell viability. Format: functional.
The test system of another data set is KB. Nature of the data set: Potency index, ratio of TD50 for doxorubicin to TD50 for test compound for cytotoxicity against human KB cells assessed as reduction in cell viability. Format: functional.
In a further data set the test system is OVCAR-3. Nature of the data set: Potency index, ratio of TD50 for doxorubicin to TD50 for test compound for cytotoxicity against human OVCAR3 cells assessed as reduction in cell viability. Format: functional.
The test system of a further data set is CCRF S-180. Put plainly: Antitumor activity against mouse S180 cells xenografted in mouse assessed as reduction in tumor weight at 10 mg/kg relative to control. Set-up: scale not given: the % may be the effect or the level left. In kind it is functional.
The next data set has as its system MRC5. Put plainly: Cytotoxicity against human MRC5 cells assessed as reduction in cell viability. In kind it is functional. To be noted: read-out: TD50 (the source's name).
Data set [6] can be described thus: Cytotoxicity against human WI38 cells assessed as reduction in cell viability. In kind it is cell-based. Particulars: WI-38 cells, read-out: TD50 (the source's name).
Data set [7] is described as follows: Potency index, ratio of TD50 for doxorubicin to TD50 for test compound for cytotoxicity against human SW403 cells assessed as reduction in cell viability. In kind it is functional.
For data set [8], the system named is MCF7. Put plainly: Potency index, ratio of TD50 for doxorubicin to TD50 for test compound for cytotoxicity against human MCF7 cells assessed as reduction in cell viability. Format: functional.
For data set [9], the system named is MCF7. Put plainly: Cytotoxicity against human MCF7 cells assessed as reduction in cell viability by MTT assay. In kind it is functional, cell-based.
A further data set relates to SW1990. Nature of the data set: Cytotoxicity against human SW1990 cells assessed as reduction in cell viability by MTT assay. Format: functional, cell-based.
A further data set concerns HUVEC. Put plainly: Cytotoxicity against human HUVEC cells assessed as reduction in cell viability by MTT assay. Format: cell-based.
The next data set deals with NCI/ADR-RES. Nature of the data set: Cytotoxicity against human MCF7/ADR cells assessed as reduction in cell viability by MTT assay. In kind it is functional, cell-based.
For data set [10], the system named is HL-60. Put plainly: Antiproliferative activity against human HL60 cells after 72 hrs by MTT assay. In kind it is functional, cell-based. Particulars: HL-60, 72 h.
In data set [11] the test system is HeLa. Nature of the data set: Antiproliferative activity against human HeLa cells after 72 hrs by MTT assay. In kind it is functional, cell-based.
A further data set has as its system A549. Put plainly: Antiproliferative activity against human A549 cells after 72 hrs by MTT assay. Format: functional, cell-based. Particulars: A549, 72 h.

One may read the IC50 as the concentration that inhibits the measured activity by half.

As for `C/C(=N\Nc1ccccc1)c1c(O)c2ccccc2n(-c2ccccc2)c1=O`, the IC50 with Hep 3B2 and in the data set on K562 was less than 10 µg/mL throughout.
For the compound `O=C(O)c1c(-c2ccc[nH]2)[nH]c2ccccc2c1=O` [PENICINOLINE], the IC50 in data set [1] is 0.091 µM; in the data set on HepG2, 0.007 µM.
For the compound `COC(=O)c1c(-c2ccc[nH]2)[nH]c2ccccc2c1=O`, the IC50 in data set [1] amounted to 0.013 µM; in the data set on HeLa [2] it was 0.11 µM.
Take `COc1ccc(-c2nnc(CSc3nnc(-c4cn(C5CC5)c5cc(N6CCN(C)CC6)c(F)cc5c4=O)o3)o2)cc1`: the IC50 in the data set on HL-60 [3], in the data set on SMMC-7721, with CHO and in the data set on L1210 [4] was 1.1 to 2.8 µM in each case.
As for `Cc1cn(-c2ccc(CCCCCCCCCCn3ccc(=O)c4c(N)cccc43)cc2)nn1`, the Ratio entry (in the data set with L1210 [5]; with KB; with OVCAR-3; in data set [7]; with MCF7 [8]) was “>=4.6” in each case. In the data set with CCRF S-180, the Activity was 13.1%. Moreover, the values for the CC50 (in the data set with MRC5; in data set [6]) were 0.033 µg/mL (≈ 0.0721 µM) and 7.45 µg/mL (≈ 16.3 µM), respectively.
As to `COc1ccc2cc3[n+](cc2c1OCc1cn(Cc2cc(=O)[nH]c4ccccc24)nn1)-c1cc2c(cc1CC3)OCO2`, the IC50 in the data set on MCF7 [9], in the data set on SMMC-7721, in the data set on SW1990, in the data set on HUVEC and in the data set with NCI/ADR-RES was 75.5 to 181 µM in each case.
For the compound `N=C(NS(=O)(=O)c1cccc(C(F)(F)F)c1)N1CCN(c2cc3c(cc2F)c(=O)c(C(=O)O)cn3-c2ccc(F)cc2F)CC1`, the IC50 in the data set with HL-60 [10] was 0.018 µM; in the data set with HeLa [11] it was 0.01 µM; in the data set with A549, 0.028 µM.
